Laboratory results from ChEMBL document CHEMBL1649229, “Efficacy of high doses of daptomycin versus alternative therapies against experimental foreign-body infection by methicillin-resistant Staphylococcus aureus” (Antimicrob Agents Chemother, 2009).
In brackets after ≈: the same amount, converted by molar mass. Activity calls are given as the source filed them. The rule behind the calls is not given here.

Tests used:
[1] = system: Staphylococcus aureus; assay: Bactericidal activity against log-phase methicillin-resistant Staphylococcus aureus HUSA 304 after 24 hrs by time kill analysis in presence of 50 mg/L calcium ions; format: functional; conditions: HUSA 304, 24 h
[2] = system: Staphylococcus aureus; assay: Bactericidal activity against stationary-phase methicillin-resistant Staphylococcus aureus HUSA 304 after 24 hrs by time kill analysis in presence of 50 mg/L calcium ions; format: functional; conditions: HUSA 304, 24 h
[3] = system: Staphylococcus aureus; assay: Antimicrobial activity against methicillin-resistant Staphylococcus aureus HUSA 304 infected in Wistar rat assessed as decrease in bacterial load in tissue cage fluid at 50 mg/kg, ip administered every 12 hrs for 7 days measured on day 8 post treatment; format: functional; conditions: route intraperitoneal
[4] = system: Staphylococcus aureus; assay: Antimicrobial activity against methicillin-resistant Staphylococcus aureus HUSA 304 infected in Wistar rat assessed as decrease in bacterial load in tissue cage fluid at 50 mg/kg, ip administered every 12 hrs for 7 days measured on day 11 post treatment; format: functional; conditions: route intraperitoneal
[5] = system: Staphylococcus aureus; assay: Antimicrobial activity against log-phase methicillin-resistant Staphylococcus aureus HUSA 304 assessed as resistant bacteria in tissue cage fluid selected on 4 ug/ml of compound measured on day 11 post treatment; format: functional, organism-based
[6] = system: Staphylococcus aureus; assay: Antimicrobial activity against log-phase methicillin-resistant Staphylococcus aureus HUSA 304 assessed as resistant bacteria on coverslip selected on 4 ug/ml of compound measured on day 11 post treatment; format: functional, organism-based
[7] = system: Staphylococcus aureus; assay: Antimicrobial activity against log-phase methicillin-resistant Staphylococcus aureus HUSA 304 assessed as resistant bacteria in tissue cage fluid selected on 4 ug/ml of compound measured on day 8 post treatment; format: functional, organism-based
[8] = Ratio of Cmax in tissue cage fluid of Wistar rat infected with methicillin-resistant Staphylococcus aureus HUSA 304 at 70 mg/kg/day, ip to MIC for methicillin-resistant Staphylococcus aureus HUSA 304; format: functional; conditions: route intraperitoneal
[9] = Cmax in serum of Wistar rat infected with methicillin-resistant Staphylococcus aureus HUSA 304 at 70 mg/kg/day, ip for 7 days; format: ADME, organism-based; parameters: dose 70 mg/kg/day, route intraperitoneal
[10] = Ratio of AUC (0 to infinity) in tissue cage fluid of Wistar rat infected with methicillin-resistant Staphylococcus aureus HUSA 304 at 70 mg/kg/day, ip to MIC for methicillin-resistant Staphylococcus aureus HUSA 304; format: functional; conditions: route intraperitoneal
[11] = AUC (0 to 24 hrs) in serum of human infected with methicillin-resistant Staphylococcus aureus HUSA 304 at 6 mg/kg/day, […]; format: ADME, organism-based; parameters: time < 24 hr, dose 6 mg/kg/day
[12] = system: Staphylococcus aureus; assay: Bactericidal activity against stationary-phase methicillin-resistant Staphylococcus aureus HUSA 304 after 24 hrs by time kill analysis; format: functional; conditions: HUSA 304, 24 h
[13] = Ratio of AUC (0 to infinity) in tissue cage fluid of Wistar rat infected with methicillin-resistant Staphylococcus aureus HUSA 304 at 45 mg/kg/day, ip to MIC for methicillin-resistant Staphylococcus aureus HUSA 304; format: functional; conditions: route intraperitoneal
[14] = AUC (0 to infinity) in tissue cage fluid of Wistar rat infected with methicillin-resistant Staphylococcus aureus HUSA 304 at 45 mg/kg/day, ip; format: ADME, organism-based; parameters: dose 45 mg/kg/day, time infinity, route intraperitoneal
[15] = system: Staphylococcus aureus; assay: Antimicrobial activity against log-phase methicillin-resistant Staphylococcus aureus HUSA 304 by M7-A6 method in presence of 50 mg/L calcium ions; format: functional
[16] = Ratio of AUC (0 to infinity) in tissue cage fluid of Wistar rat infected with methicillin-resistant Staphylococcus aureus HUSA 304 at 100 mg/kg/day, ip to MIC for methicillin-resistant Staphylococcus aureus HUSA 304; format: functional; conditions: route intraperitoneal
[17] = Cmax in serum of Wistar rat infected with methicillin-resistant Staphylococcus aureus HUSA 304 at 45 mg/kg/day, ip for 7 days; format: ADME, organism-based; parameters: dose 45 mg/kg/day, route intraperitoneal
[18] = fT>MIC in methicillin-resistant Staphylococcus aureus HU 304 infected in Wistar rat at 100 mg/kg/day, ip for 7 days; format: functional; conditions: route intraperitoneal
[19] = Ratio of Cmax in tissue cage fluid of Wistar rat infected with methicillin-resistant Staphylococcus aureus HUSA 304 at 45 mg/kg/day, ip to MIC for methicillin-resistant Staphylococcus aureus HUSA 304; format: functional; conditions: route intraperitoneal
[20] = system: Staphylococcus aureus; assay: Bactericidal activity against log-phase methicillin-resistant Staphylococcus aureus HUSA 304 after 24 hrs by time kill analysis; format: functional; conditions: HUSA 304, 24 h
[21] = system: Staphylococcus aureus; assay: Antimicrobial activity against methicillin-resistant Staphylococcus aureus HUSA 304 infected in Wistar rat assessed as decrease in bacterial load in tissue cage fluid at 100 mg/kg/day, ip administered for 7 days measured on day 11 post treatment in presence of 50 mg/L calcium ions; format: functional; conditions: route intraperitoneal
[22] = system: Staphylococcus aureus; assay: Antimicrobial activity against log-phase methicillin-resistant Staphylococcus aureus HUSA 304 assessed as resistant bacteria in tissue cage fluid selected on 1 to 5 ug/ml of compound measured on day 8 post treatment in presence of 50 mg/L calcium ions; format: functional, organism-based
[23] = Cmax in serum of human infected with methicillin-resistant Staphylococcus aureus HUSA 304 at 6 mg/kg/day, […]; format: ADME, organism-based; parameters: dose 6 mg/kg/day
[24] = Cmax in serum of human infected with methicillin-resistant Staphylococcus aureus HUSA 304 at 8 mg/kg/day, […]; format: ADME, organism-based; parameters: dose 8 mg/kg/day, route intraperitoneal
[25] = Cmax in serum of Wistar rat infected with methicillin-resistant Staphylococcus aureus HUSA 304 at 100 mg/kg/day, ip for 7 days; format: ADME, organism-based; parameters: dose 100 mg/kg/day, route intraperitoneal
[26] = fT>MIC in methicillin-resistant Staphylococcus aureus HU 304 infected in Wistar rat at 70 mg/kg/day, ip for 7 days; format: functional; conditions: route intraperitoneal
[27] = Cmax in tissue cage fluid of Wistar rat infected with methicillin-resistant Staphylococcus aureus HUSA 304 at 70 mg/kg/day, ip; format: ADME, organism-based, Interstitial fluid; parameters: dose 70 mg/kg/day, route intraperitoneal
[28] = AUC (0 to infinity) in serum of Wistar rat infected with methicillin-resistant Staphylococcus aureus HUSA 304 at 70 mg/kg/day, ip for 7 days; format: ADME, organism-based; parameters: dose 70 mg/kg/day, time infinity, route intraperitoneal
[29] = AUC (0 to 24 hrs) in serum of human infected with methicillin-resistant Staphylococcus aureus HUSA 304 at 8 mg/kg/day, […]; format: ADME, organism-based; parameters: dose 8 mg/kg/day, time < 24 hr
[30] = AUC (0 to infinity) in serum of Wistar rat infected with methicillin-resistant Staphylococcus aureus HUSA 304 at 100 mg/kg/day, ip for 7 days; format: ADME, organism-based; parameters: dose 100 mg/kg/day, time infinity, route intraperitoneal
[31] = Cmax in tissue cage fluid of Wistar rat infected with methicillin-resistant Staphylococcus aureus HUSA 304 at 45 mg/kg/day, ip; format: ADME, organism-based, Interstitial fluid; parameters: dose 45 mg/kg/day, route intraperitoneal
[32] = Cmax in tissue cage fluid of Wistar rat infected with methicillin-resistant Staphylococcus aureus HUSA 304 at 100 mg/kg/day, ip; format: ADME, organism-based, Interstitial fluid; parameters: dose 100 mg/kg/day, route intraperitoneal
[33] = AUC (0 to 24 hrs) in serum of human infected with methicillin-resistant Staphylococcus aureus HUSA 304 at 10 mg/kg/day, […]; format: ADME, organism-based; parameters: dose 10 mg/kg/day, time < 24 hr
[34] = Cmax in serum of human infected with methicillin-resistant Staphylococcus aureus HUSA 304 at 10 mg/kg/day, […]; format: ADME, organism-based; parameters: dose 10 mg/kg/day, route intraperitoneal
[35] = AUC (0 to infinity) in tissue cage fluid of Wistar rat infected with methicillin-resistant Staphylococcus aureus HUSA 304 at 70 mg/kg/day, ip; format: ADME, organism-based; parameters: dose 70 mg/kg/day, time infinity, route intraperitoneal
[36] = AUC (0 to infinity) in serum of Wistar rat infected with methicillin-resistant Staphylococcus aureus HUSA 304 at 45 mg/kg/day, ip for 7 days; format: ADME, organism-based; parameters: dose 45 mg/kg/day, time infinity, route intraperitoneal
[37] = AUC (0 to infinity) in tissue cage fluid of Wistar rat infected with methicillin-resistant Staphylococcus aureus HUSA 304 at 100 mg/kg/day, ip; format: ADME, organism-based; parameters: dose 100 mg/kg/day, time infinity, route intraperitoneal
[38] = fT>MIC in methicillin-resistant Staphylococcus aureus HU 304 infected in Wistar rat at 45 mg/kg/day, ip for 7 days; format: functional; conditions: route intraperitoneal
[39] = system: Staphylococcus aureus; assay: Antimicrobial activity against log-phase methicillin-resistant Staphylococcus aureus HUSA 304 selected on 1 to 5 ug/ml of compound measured after 5 days by M7-A6 method in presence of 50 mg/L calcium ions; format: functional; conditions: HUSA 304, 120 h
[40] = system: Staphylococcus aureus; assay: Antimicrobial activity against log-phase methicillin-resistant Staphylococcus aureus HUSA 304 assessed as resistant bacteria in tissue cage fluid selected on 1 to 5 ug/ml of compound measured on day 11 post treatment in presence of 50 mg/L calcium ions; format: functional, organism-based
[41] = Ratio of Cmax in tissue cage fluid of Wistar rat infected with methicillin-resistant Staphylococcus aureus HUSA 304 at 100 mg/kg/day, ip to MIC for methicillin-resistant Staphylococcus aureus HUSA 304; format: functional; conditions: route intraperitoneal
[42] = system: Staphylococcus aureus; assay: Antimicrobial activity against methicillin-resistant Staphylococcus aureus HUSA 304 infected in Wistar rat assessed as decrease in bacterial load in tissue cage fluid at 100 mg/kg/day, ip administered for 7 days measured on day 8 post treatment in presence of 50 mg/L calcium ions; format: functional; conditions: route intraperitoneal
[43] = system: Staphylococcus aureus; assay: Antimicrobial activity against log-phase methicillin-resistant Staphylococcus aureus HUSA 304 assessed as resistant bacteria on coverslip selected on 1 to 5 ug/ml of compound measured on day 11 post treatment in presence of 50 mg/L calcium ions; format: functional, organism-based
[44] = system: Staphylococcus aureus; assay: Antimicrobial activity against log-phase methicillin-resistant Staphylococcus aureus HUSA 304 by M7-A6 method; format: functional
[45] = system: Staphylococcus aureus; assay: Antimicrobial activity against methicillin-resistant Staphylococcus aureus HUSA 304 infected in Wistar rat assessed as decrease in bacterial load in tissue cage fluid at 35 mg/kg, ip administered every 12 hrs for 7 days measured on day 11 post treatment; format: functional; conditions: route intraperitoneal
[46] = system: Staphylococcus aureus; assay: Antimicrobial activity against methicillin-resistant Staphylococcus aureus HUSA 304 infected in Wistar rat assessed as decrease in bacterial load in tissue cage fluid at 35 mg/kg, ip administered every 12 hrs for 7 days measured on day 8 post treatment; format: functional; conditions: route intraperitoneal

CN[C@H](CC(C)C)C(=O)N[C@H]1C(=O)N[C@@H](CC(N)=O)C(=O)N[C@H]2C(=O)N[C@H]3C(=O)N[C@H](C(=O)N[C@H](C(=O)O)c4cc(O)cc(O)c4-c4cc3ccc4O)[C@H](O)c3ccc(c(Cl)c3)Oc3cc2cc(c3O[C@@H]2O[C@H](CO)[C@@H](O)[C@H](O)[C@H]2O[C@H]2C[C@](C)(N)[C@H](O)[C@H](C)O2)Oc2ccc(cc2Cl)[C@H]1O [VANCOMYCIN]
MBC [1]: 4 µg/mL
MBC [2]: > 32 µg/mL

CC(=O)NC[C@H]1CN(c2ccc(N3CCOCC3)c(F)c2)C(=O)O1 [LINEZOLID]
log10cfu [3]: 1.06
log10cfu [4]: 0.93
MBC [1]: > 32 µg/mL
Activity [5]: Active
MBC [2]: > 32 µg/mL
Activity [6]: Active
Activity [7]: Active

CCCCCCCCCC(=O)N[C@@H](Cc1c[nH]c2ccccc12)C(=O)N[C@H](CC(N)=O)C(=O)N[C@@H](CC(=O)O)C(=O)N[C@@H]1C(=O)NCC(=O)N[C@@H](CCCN)C(=O)N[C@@H](CC(=O)O)C(=O)N[C@H](C)C(=O)N[C@@H](CC(=O)O)C(=O)NCC(=O)N[C@H](CO)C(=O)N[C@@H]([C@H](C)CC(=O)O)C(=O)N[C@@H](CC(=O)c2ccccc2N)C(=O)O[C@@H]1C
Ratio [8]: 34
Cmax [9]: 128 µg/mL
RatioAUC/MIC [10]: 953
AUC at 24 h [11]: 730 µg·h/mL
MBC [12]: 24 µg/mL (≈ 14.8 µM)
RatioAUC/MIC [13]: 795
AUC(0-inf) [14]: 795 µg·h/mL
MIC [15]: 1 µg/mL
RatioAUC/MIC [16]: 1100
Cmax [17]: 103 µg/mL
fT>MIC [18]: 100%
Ratio [19]: 26
MBC [20]: 4 µg/mL (≈ 2.47 µM)
log10cfu [21]: 2.57
Activity [22]: Active
Cmax [23]: 95 µg/mL
Cmax [24]: 106 µg/mL
Cmax [25]: 140 µg/mL
fT>MIC [26]: 100%
Cmax [27]: 34 µg/mL
AUC(0-inf) [28]: 984 µg·h/mL
AUC at 24 h [29]: 773 µg·h/mL
AUC(0-inf) [30]: 1200 µg·h/mL
Cmax [31]: 26 µg/mL
Cmax [32]: 40 µg/mL
AUC at 24 h [33]: 1010 µg·h/mL
Cmax [34]: 130 µg/mL
AUC(0-inf) [35]: 953 µg·h/mL
AUC(0-inf) [36]: 830 µg·h/mL
AUC(0-inf) [37]: 1100 µg·h/mL
fT>MIC [38]: 100%
MIC [39]: 1 µg/mL
Activity [40]: Active
Ratio [41]: 40
log10cfu [42]: 2.26
Activity [43]: Active

CO[C@H]1/C=C/O[C@@]2(C)Oc3c(C)c(O)c4c(O)c(c(/C=N/N5CCN(C)CC5)c(O)c4c3C2=O)NC(=O)/C(C)=C\C=C\[C@H](C)[C@H](O)[C@@H](C)[C@@H](O)[C@@H](C)[C@H](OC(C)=O)[C@@H]1C [RIFAMPIN]
MIC [44]: 0.03 µg/mL (≈ 0.0365 µM)
log10cfu [45]: 1.1
MBC [1]: 0.5 µg/mL
log10cfu [46]: 1.36
MBC [2]: > 8 µg/mL
